Results: PubChem BioAssay AID2060342 (Molecular Pharmacology Branch, DTP, NCI, 2025)
pIC50: −log10 of the molar value.

Tested on: 171881-019-R-J1-PDC multicell spheroid viability
Experiment: Anticancer human tumor 171881-019-R-J1-PDC patient-derived invasive breast carcinoma cell line growth inhibition [IpAb]
Settings: for pIC50: curve of first compound; for viability, T/C: stronger effect = lower value
From the text: Combinatorial screen of targeted agents with ipatasertib and abemaciclib in multi-cell type tumor spheroids
A high-throughput screen of multi-cell type tumor spheroids was designed to identify active combinations of targeted small molecules and ipatasertib or abemaciclib. Complex spheroids include a stromal component modeled by human endothelial cells (HUVEC) and fibroblasts modeled by human mesenchymal stem cells (MSCs). The concentration ranges selected for each drug and investigational agent were based upon clinically achievable concentrations if the clinical Cmax of the agent was known.
Compounds. The drugs and investigational agents: ipatasertib (NSC767898), abemaciclib(NSC768073), selumetinib (NSC741078), trametinib (758246), adavosertib (NSC754352), everolimus (NSC733504), sapanisertib (NSC764658), vemurafenib (NSC761431), venetoclax (NSC766270), copanlisib (NSC809693), apelisib (NSC765974), palbociblib (NSC758247), vemurafenib (NSC761431), dabrafenib (NSC764134), ravoxertinib (NSC781343), BMS-387032 (NSC767048), sotorasib (NSC818433), talazoparib (NSC767125) and afursertib (NSC778305), were obtained from the National Cancer Institute (NCI) Developmental Therapeutics Program Chemical Repository. The FDA-approved anticancer drug set is available from the NCI Developmental Therapeutics Program. […] The stock solutions were prepared in dimethyl sulfoxide (DMSO, Sigma-Aldrich, St. Louis, MO, cat. D2650) at 800-fold the tested concentration and stored at -70 degrees C prior to their use. All drugs and investigational agents were tested over a range starting from a high concentration at or near the clinical Cmax and decreasing in half-log increments. If the clinical Cmax for an agent had not been determined, the highest concentration tested was 10 microM.
NCI60 Cell Culture. NCI60 cell lines were obtained from the NCI Developmental Therapeutics Program Tumor Repository. For each lot of cells, the Repository performed Applied Biosystems AmpFLSTR Identifiler testing with PCR amplification to confirm consistency with the published Identifier STR profile for each cell line. Cells were kept in continuous culture for no more than 20 passages. The optimal seeding densities for each of the cell lines at each time point assessed were determined prior to performing the concentration response studies. Briefly, the NCI60 human tumor lines were grown as monolayers in RPMI 1640 medium supplemented with 10% FBS and 2 mmol/L L-glutamine.
An additional 9 lines were from the NCI60 cell line panel including MDA-MB-231 breast carcinoma, MDA-MB-468 breast carcinoma, MCF7 breast carcinoma, Hs578T breast carcinoma, MALME-3M melanoma, SK-MEL-2 melanoma, SK-OV-3 ovarian carcinoma, DU-145 prostate carcinoma, PC-3 prostate carcinoma, all cell lines along with major genetic alterations are listed on Table 2. Pooled donor human umbilical vein endothelial cells (HUVEC, Lonza, cat. CC-2519) and human mesenchymal stem cells (hMSC, Lonza, cat. PT-2501) were purchased from Lonza (Walkersville, MD).
PDMR cell lines were grown in complete medium (DC medium): Dulbecco's modified Eagle's medium (DMEM)/F12 supplemented with 5% fetal bovine serum (FBS), 2 mM L-glutamine, 100 U/mL penicillin and 100 µg/ml streptomycin, 0.4 µg/ml hydrocortisone, 10 ng/ml epidermal growth factor (EGF) recombinant human protein, 24 µg/mL adenine, and 0.1 mg/mL primocin. During culture from frozen stock vials, PDMR cells were cultured in the same medium containing 10 µM Y-27632 (see Table 3). The PDCs were cultured in complete DMEM/F12 media without 10 microM Y-27632 dihydrochloride for at least two passages prior to the screen. The pooled donor HUVEC and hMSC were cultured in endothelial cell growth medium 2 (PromoCell, Heidelberg, Germany, cat. C-22011) and mesenchymal stem cell growth medium 2 (PromoCell, cat. C-28009), respectively. For all experiments, HUVEC and hMSC were used at passages </=5.
[…]

[1] = second compound 0.1 µM, first compound 0.0316 µM
[2] = second compound 0.1 µM, first compound 0.1 µM
[3] = second compound 0.1 µM, first compound 0.316 µM
[4] = second compound 0.1 µM, first compound 1 µM
[5] = second compound 0.1 µM, first compound 3.16 µM
[6] = second compound 0.1 µM, first compound 10 µM
[7] = second compound 0.316 µM, first compound 0.0316 µM
[8] = second compound 0.316 µM, first compound 0.1 µM
[9] = second compound 0.316 µM, first compound 0.316 µM
[10] = second compound 0.316 µM, first compound 1 µM
[11] = second compound 0.316 µM, first compound 3.16 µM
[12] = second compound 0.316 µM, first compound 10 µM
[13] = second compound 1 µM, first compound 0.0316 µM
[14] = second compound 1 µM, first compound 0.1 µM
[15] = second compound 1 µM, first compound 0.316 µM
[16] = second compound 1 µM, first compound 1 µM
[17] = second compound 1 µM, first compound 3.16 µM
[18] = second compound 1 µM, first compound 10 µM
[19] = second compound 3.16 µM, first compound 0.0316 µM
[20] = second compound 3.16 µM, first compound 0.1 µM
[21] = second compound 3.16 µM, first compound 0.316 µM
[22] = second compound 3.16 µM, first compound 1 µM
[23] = second compound 3.16 µM, first compound 3.16 µM
[24] = second compound 3.16 µM, first compound 10 µM
[25] = second compound 10 µM, first compound 0.0316 µM
[26] = second compound 10 µM, first compound 0.1 µM
[27] = second compound 10 µM, first compound 0.316 µM
[28] = second compound 10 µM, first compound 1 µM
[29] = second compound 10 µM, first compound 3.16 µM
[30] = second compound 10 µM, first compound 10 µM
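Also: spheroids exposed to the agents for seven days before readout.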

Compound	pIC50 (second compound 0.1 µM)	pIC50 (second compound 0.316 µM)	pIC50 (second compound 1 µM)	pIC50 (second compound 3.16 µM)	pIC50 (second compound 10 µM)	viability, T/C [1] [%]	viability, T/C [2] [%]	viability, T/C [3] [%]	viability, T/C [4] [%]	viability, T/C [5] [%]	viability, T/C [6] [%]	viability, T/C [7] [%]	viability, T/C [8] [%]	viability, T/C [9] [%]	viability, T/C [13] [%]	viability, T/C [14] [%]	viability, T/C [19] [%]	viability, T/C [20] [%]	viability, T/C [25] [%]	viability, T/C [26] [%]	other results
C=CCn1c(=O)c2cnc(Nc3ccc(N4CCN(C)CC4)cc3)nc2n1-c1cccc(C(C)(C)O)n1 + CC(C)NCC(C(=O)N1CCN(c2ncnc3c2C(C)CC3O)CC1)c1ccc(Cl)cc1	6.14	6.45	> 7.50	> 7.50	> 7.50	116	118	114	25.6	22.1	20.3	87.3	80.3	54	26.4	23.8	9.36	8.13	5.29	4.04	viability, T/C [10]: 17.4%; viability, T/C [11]: 15.6%; viability, T/C [12]: 16.4%; viability, T/C [15]: 16.5%; viability, T/C [16]: 9.22%; viability, T/C [17]: 10.4%; viability, T/C [18]: 10.4%; viability, T/C [21]: 6.23%; viability, T/C [22]: 5.35%; viability, T/C [23]: 7.31%; viability, T/C [24]: 8.03%; viability, T/C [27]: 3.45%; viability, T/C [28]: 4.09%; viability, T/C [29]: 4.97%; viability, T/C [30]: 4.41%
CC(C)n1nc(-c2ccc3oc(N)nc3c2)c2c(N)ncnc21 + CC(C)NCC(C(=O)N1CCN(c2ncnc3c2C(C)CC3O)CC1)c1ccc(Cl)cc1	8.44	9.06	> 9.50	> 9.50	> 9.50	2.88	2					1.96	1.7		1.26	1.29	1.09	0.93	0.84	1	viability, T/C (second compound 0.1 µM, first compound 0.000316 µM): 116%; viability, T/C (second compound 0.1 µM, first compound 0.001 µM): 101%; viability, T/C (second compound 0.1 µM, first compound 0.00316 µM): 56.6%; viability, T/C (second compound 0.1 µM, first compound 0.01 µM): 11.2%; viability, T/C (second compound 0.316 µM, first compound 0.000316 µM): 69.3%; viability, T/C (second compound 0.316 µM, first compound 0.001 µM): 47.4%; viability, T/C (second compound 0.316 µM, first compound 0.00316 µM): 16.7%; viability, T/C (second compound 0.316 µM, first compound 0.01 µM): 3.76%; viability, T/C (second compound 1 µM, first compound 0.000316 µM): 20%; viability, T/C (second compound 1 µM, first compound 0.001 µM): 9.02%; viability, T/C (second compound 1 µM, first compound 0.00316 µM): 5.13%; viability, T/C (second compound 1 µM, first compound 0.01 µM): 2.23%; viability, T/C (second compound 3.16 µM, first compound 0.000316 µM): 8.5%; viability, T/C (second compound 3.16 µM, first compound 0.001 µM): 4.98%; viability, T/C (second compound 3.16 µM, first compound 0.00316 µM): 2.85%; viability, T/C (second compound 3.16 µM, first compound 0.01 µM): 1.62%; viability, T/C (second compound 10 µM, first compound 0.000316 µM): 5.26%; viability, T/C (second compound 10 µM, first compound 0.001 µM): 3.35%; viability, T/C (second compound 10 µM, first compound 0.00316 µM): 2.04%; viability, T/C (second compound 10 µM, first compound 0.01 µM): 1.47%
CC1(C)CCC(CN2CCN(c3ccc(C(=O)NS(=O)(=O)c4ccc(NCC5CCOCC5)c([N+](=O)[O-])c4)c(Oc4cnc5[nH]ccc5c4)c3)CC2)=C(c2ccc(Cl)cc2)C1 + CC(C)NCC(C(=O)N1CCN(c2ncnc3c2C(C)CC3O)CC1)c1ccc(Cl)cc1	5.25	5.55	> 7.50	> 7.50	> 7.50	136	114	120	107	84.3	18.7	103	96.8	83.1	37.2	31.9	10.9	11.4	8.52	5.8	viability, T/C [10]: 71.3%; viability, T/C [11]: 48.7%; viability, T/C [12]: 14.8%; viability, T/C [15]: 34.8%; viability, T/C [16]: 32.3%; viability, T/C [17]: 30.3%; viability, T/C [18]: 12.3%; viability, T/C [21]: 11.3%; viability, T/C [22]: 11.5%; viability, T/C [23]: 12.6%; viability, T/C [24]: 5.33%; viability, T/C [27]: 5.75%; viability, T/C [28]: 6.5%; viability, T/C [29]: 5.63%; viability, T/C [30]: 2.85%
CCCS(=O)(=O)Nc1ccc(F)c(C(=O)c2c[nH]c3ncc(-c4ccc(Cl)cc4)cc23)c1F + CC(C)NCC(C(=O)N1CCN(c2ncnc3c2C(C)CC3O)CC1)c1ccc(Cl)cc1	< 5.00	< 5.00	> 7.50	> 7.50	> 7.50	112	128	110	111	112	90.8	90.3	91.5	92.5	36.9	39.9	12.8	13.4	7.7	7.32	viability, T/C [10]: 97.8%; viability, T/C [11]: 110%; viability, T/C [12]: 100%; viability, T/C [15]: 38.9%; viability, T/C [16]: 41.4%; viability, T/C [17]: 47.2%; viability, T/C [18]: 53.7%; viability, T/C [21]: 14.2%; viability, T/C [22]: 14.5%; viability, T/C [23]: 21%; viability, T/C [24]: 24.1%; viability, T/C [27]: 8.04%; viability, T/C [28]: 8.61%; viability, T/C [29]: 10.4%; viability, T/C [30]: 11%
